Reference: a melting point compilation (Tetko et al.; mined from patent text by program, amines drawn as free bases though some values may be those of a salt)

SMILES	melting point [°C]
Cc1cc(NS(=O)(=O)c2nc3nc(Cl)cc(Cl)n3n2)ccc1Br	232 to 234
O=C(O)C1Cc2ccccc2N1S(=O)(=O)c1ccc(-c2cccc(Cl)c2)cc1 (stereo unspecified)	78
CCC(CC)NC(=O)NC/C=C\COc1cc(CN2CCCCC2)ccn1	82 to 84
Cc1cc(C)c2nc3sccn3c(=O)c2c1	190 to 192
O=C(OC1CCN(Cc2ccccc2)CC1)c1ccc(I)cc1	77 to 78
COC(=O)Cn1cnc2c(OCc3ccccc3)ncnc21	112 to 115
Cc1cccc2c1C=Cc1ccccc1C2(O)CCCN(C)C (stereo unspecified)	141 to 143
C=CCC(Cc1ccc([N+](=O)[O-])cc1)NC(=O)OCc1ccccc1 (stereo unspecified)	94 to 95
Cc1nnc(-c2ccccc2F)n2nc(OCc3ncn(C)n3)c(-c3ccsc3)c12	214 to 217
CCCNc1c(C#N)cnn1-c1ccc(OC(F)(F)F)cc1Cl	63
CCCCn1c(=O)cc(-c2ccc(NCCO)cc2)[nH]c1=O	207 to 208
O=C(Nc1cccnc1Cl)N1CCc2ccccc2CC1	120 to 122
CCOC(=O)C1=C(C)NC(C(OCC)OCC)=C(C(=O)OCC)C1c1ccccc1C(F)(F)F (stereo unspecified)	82 to 83
CN1CC(CCN(C)c2ccccc2)N(C)c2nc3ccccc3n2C1=O (stereo unspecified)	74 to 90
CN(C)C(=O)c1ccccc1CC(=O)Nc1cccc(/C=C/c2nc(C3CCC3)cs2)c1	125 to 127
COC(=O)C(Cl)C(Cl)c1ccccc1 (stereo unspecified)	164 to 165
O=C(CO)Cc1ccc(Cl)cc1	53.5
CSc1cc(C)nc(SC)c1NC(=O)CCCCCCCSc1nc2cccc(C(F)(F)F)c2o1	115 to 116
OCc1cc2ccccc2nc1I	189 to 190
N#CCc1nnc2n1-c1ccc(Cl)cc1C(c1ccccc1)=NC2	198 to 201
CCC(C)N(C)C(=O)c1cc(-c2ccccc2)cc2ccccc12 (stereo unspecified)	125
CC(CO)Nc1ccc(-c2cccc(C(F)(F)F)c2)nn1 (stereo unspecified)	143 to 144
COc1c(C)c(C)c(OC)c(CC[C@](C)(O)CO)c1C	82 to 84
Cc1oc(-c2ccccc2)nc1COc1cccc(N)c1	89 to 90
Cc1ccc(N2C(=O)NC(=O)C23CCN(Cc2ccccc2)CC3)cc1	291 to 293
COc1ccc(C(=O)Nc2c(Cl)cncc2Cl)c2c1OCC2CC(=O)NCc1ccccc1 (stereo unspecified)	284 to 286

SMILES	melting point [°C]
C=CCOC(=O)C1CC(=O)N(C2CC(C)(C)N(C)C(C)(C)C2)C1 (stereo unspecified)	48 to 49
Cc1ccncc1OC1SCC(O)C(O)C1O (stereo unspecified)	236
CSc1cccc(C(=C2CN(C(c3ccccc3)c3ccccc3)C2)S(C)(=O)=O)c1	146
Nc1ccc(Cl)cc1C(O)(C#CC1CC1)C(F)(F)F (stereo unspecified)	141 to 143
C=C(C)COC1CC2C3CCC4=CC(=O)C=CC4(C)C3(F)C(O)CC2(C)C1(O)C(=O)CCl (stereo unspecified)	238 to 240
CCCCOC(=O)c1c(-c2ccncc2)[nH]c(-c2ccncc2)c1C	182 to 186
COc1ccc(-c2cc(=Nc3c(C)cc(C)cc3C)n(C)c(=O)n2C)cc1S(C)=O (stereo unspecified)	125 to 135
O=C(CCl)N(CCc1[nH]c2ccccc2c1-c1ccccc1)CC1CC1	104 to 106
O=C(O)CC1(CCCCCCCCCCCC2(C(=O)O)CC2)CC1	75.3 to 78.9
CN(Cc1cccc(O)c1)c1cnc(-c2ccccc2)c(-c2ccccc2)n1	156 to 157
CCOC(=O)CCC(C)c1ccc(O)cc1 (stereo unspecified)	32 to 34
O=C1CCC(OCc2ccccc2)N1S(=O)(=O)c1ccccc1 (stereo unspecified)	80 to 81
CCOP(=O)(CNC(=O)OC(c1ccccc1)c1cc(C(C)(C)C)c(O)c(C(C)(C)C)c1)OCC (stereo unspecified)	196 to 197
Cc1ccc2c(n1)N(CCCN(C(C)C)C(C)C)c1ccccc1N(C)C2=O	118 to 119
O=C(Nc1c(Cl)cccc1Cl)N1CCN(c2cnccn2)CC1	177 to 179
CSc1nc(C)n(CC(=O)O)c(=O)c1C#N	236 to 238
CC(C)(C)CC(=O)NN1C(=O)C(NC(=O)Nc2cccc(N)c2)CC(c2ccccc2)CC1c1ccccc1 (stereo unspecified)	195 to 205
COC(=O)c1ccccc1C(=O)NN(C(=S)Nc1ccccc1)C(C)C	145 to 147
Oc1ccc(-c2nc3cc(O)cc(-c4ccco4)c3o2)cc1	120 to 121
c1ccc2c3c([nH]c2c1)CCN(CCCCc1ccncc1)C3	204 to 206
S=c1[nH]nc(C=Cc2ccc3ccccc3c2)o1	> 250
COc1ccc(C=O)c(OC)c1I	103
C=Cc1cnc(NC(=O)C(C)C)nc1	110 to 112
COC1CCCC(C(=O)Nc2ccc(-n3nc(C(F)(F)F)cc3C(F)(F)F)cc2)C1 (stereo unspecified)	145 to 147
Cc1nnc(Cl)c(-c2c(F)cc(F)cc2F)c1-c1cccs1	90 to 92
CCCOc1cccc(Oc2ccc3c(c2)C=C(C(=O)Nc2ccc(CN(C)C4CCOCC4)cc2)CCS3(=O)=O)c1	143 to 144

SMILES	melting point [°C]
Cc1nccn1-c1nc(Cl)c(-c2ccccc2)c2ccccc12	167 to 168
CC(=O)c1ccc(NCc2cc3c(cc2O)CCO3)cc1	181 to 183
O=C(NCc1cccs1)C1CCCCC1	105
CCC(CC)Nc1cc(C)nc2c1nnn2-c1c(C)cc(C)cc1C	131 to 133
O=C1C(Br)=CC(Br)(Br)C=C1Br	123 to 127
CCOc1ccccc1COc1ccc2c(c1)C=C(C(=O)O)CCS2(=O)=O	158 to 160
Cn1cc(C(=O)Nc2ccccc2-c2ccc(Cl)cc2)c(C(F)(F)F)n1	144 to 146
Cc1cc(CO)cc(C#N)n1	136 to 138
CCCCCCCCCC1OC1C(=O)O (stereo unspecified)	56 to 57
CNC(=O)N(O)C(C)c1ccc(Cl)c(C)c1 (stereo unspecified)	99 to 102
CCCCOc1ccc2c(c1)C(N(C)S(C)(=O)=O)=CC(C)(C)O2	114 to 116
c1ccc(C2=Nc3ccccc3N3CCc4cccc2c43)cc1	141 to 143
CO[C@@H]1CN(Cc2ccccc2)CC[C@H]1NC(=O)c1cccc(C(F)(F)F)c1 (relative stereo)	135
C=C1CC2(CC)C(=O)CC(OC(C)=O)C2C2CCC3=CC(=O)CCC3C12 (stereo unspecified)	176
CC(=O)c1ccc2oc3nc(N)c(C(=O)O)cc3c(=O)c2c1	> 300
Cc1cccc2c1N(CC(=O)N1CC3CCC(CC3)C1)C(=O)C(NC(=O)Nc1cccc(C(=O)O)c1)N=C2c1ccccc1F (stereo unspecified)	197 to 204
Fc1cc(I)c2nc[nH]c2c1	210 to 211
COc1ccc(C2Sc3c(Cl)cccc3N(CCN(C)C)C(=O)C2O)cc1 (stereo unspecified)	143 to 144
C(=C\c1nc(COc2ccc(CCn3cncn3)cc2)co1)/c1ccccc1	136 to 137
C=CCN1CC(=O)C(C#N)=C1N	275 to 278
CCOC(=O)/C=C/c1ccc(OC(C)C)nc1Oc1ccc(Cl)cc1Cl	92 to 93
Clc1cn2c(Cl)cnc2cn1	115 to 116
Cc1ccc(-c2cnn(-c3ccc(C)cc3)n2)cc1	98 to 99
O=S(=O)(c1ccccc1)C1CCCC2(C1)OCCO2 (stereo unspecified)	93 to 95
